# Reference: ChEMBL document CHEMBL1201862, “PubChem BioAssay data set” (2004)
# Active and inactive are the calls of the source.
# Legend:
# INS1 = assay: beta cell apoptosis inhibitors, cytokine rescue, dose response, luminescence, retest (AID 449756); assay type: functional, cell-based; details: Rattus norvegicus;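 further: cell death triggered by IL-1 beta plus TNF-alpha plus IFN-gamma mixture; protective hits raise ATP signal compared with cytokine alone wells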
# [1] = cytotoxicity in MIN6 insulinoma cells, dose response, cytotoxicity control, cell-based, mouse insulinoma (AID 2122); assay type: functional;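 further: confirmatory high-throughput counterscreen run to flag cytotoxic compounds; mouse MIN-6 beta cells carrying an insulin promoter eGFP reporter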
# [2] = target: E3 ubiquitin-protein ligase UHRF1 (Homo sapiens, UniProt Q96T88); assay: Counterscreen for inhibitors of 5-meCpG-binding domain protein 2 (MBD2): TRFRET-based biochemical high throughput dose response assay to identify inhibitors of binding of ubiquitin-like with PHD and ring finger domains 1 (UHRF1) to methylated oligonucleotide.
# Sequence of E3 ubiquitin-protein ligase UHRF1 (Q96T88 whole entry, the tested form may be a part): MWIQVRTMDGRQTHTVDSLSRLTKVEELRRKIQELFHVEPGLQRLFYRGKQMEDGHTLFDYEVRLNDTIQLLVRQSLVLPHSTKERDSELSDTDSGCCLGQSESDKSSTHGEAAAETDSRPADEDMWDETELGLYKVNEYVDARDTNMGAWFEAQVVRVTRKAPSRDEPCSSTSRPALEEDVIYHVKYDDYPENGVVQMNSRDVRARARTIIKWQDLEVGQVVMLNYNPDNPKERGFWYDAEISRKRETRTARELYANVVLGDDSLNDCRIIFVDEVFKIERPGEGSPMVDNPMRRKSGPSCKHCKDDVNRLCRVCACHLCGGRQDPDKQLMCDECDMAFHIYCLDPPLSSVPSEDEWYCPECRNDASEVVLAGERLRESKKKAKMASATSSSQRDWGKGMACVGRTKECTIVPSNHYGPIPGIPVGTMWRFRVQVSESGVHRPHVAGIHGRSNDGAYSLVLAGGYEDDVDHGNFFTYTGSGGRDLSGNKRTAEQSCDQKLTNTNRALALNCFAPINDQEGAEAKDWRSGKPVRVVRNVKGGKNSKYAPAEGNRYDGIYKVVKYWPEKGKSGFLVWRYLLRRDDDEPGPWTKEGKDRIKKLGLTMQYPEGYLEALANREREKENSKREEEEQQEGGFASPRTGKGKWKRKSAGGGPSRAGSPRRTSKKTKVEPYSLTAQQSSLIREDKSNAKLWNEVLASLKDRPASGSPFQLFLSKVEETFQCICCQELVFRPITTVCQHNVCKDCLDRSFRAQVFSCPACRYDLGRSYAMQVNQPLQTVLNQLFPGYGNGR
# [3] = insulin promoter down-regulators in MIN6 cells, imaging, high-content screening, mouse beta cells (AID 1628); assay type: functional
# [4] = Artemis endonuclease inhibitor potency, dose response, biochemical, fluorescence intensity (AID 720701); assay type: functional;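 further: Artemis endonuclease enzyme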
# Bcl-2-like protein 10 = Bcl-2-like protein 10 (Homo sapiens, UniProt Q9HD36); assay: displacers of TR3 peptide from Bcl-B, primary screen, selectivity assay for Bfl-1 inhibitor project, biochemical, fluorescence polarization, FITC-TR3 peptide (AID 748);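 further: fluorescence polarization from a fluorescein-labelled TR3 peptide binding purified Bcl-B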
# Sequence of Bcl-2-like protein 10 (Q9HD36 whole entry): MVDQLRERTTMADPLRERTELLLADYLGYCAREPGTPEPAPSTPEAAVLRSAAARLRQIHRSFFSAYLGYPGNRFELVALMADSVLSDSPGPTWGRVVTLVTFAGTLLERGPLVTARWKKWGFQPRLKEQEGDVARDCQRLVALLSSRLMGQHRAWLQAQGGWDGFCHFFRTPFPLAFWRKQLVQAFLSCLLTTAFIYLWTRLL
# [5] = target: Induced myeloid leukemia cell differentiation protein Mcl-1 (Homo sapiens, UniProt Q07820); assay type: functional
# Sequence of Induced myeloid leukemia cell differentiation protein Mcl-1 (Q07820 whole entry): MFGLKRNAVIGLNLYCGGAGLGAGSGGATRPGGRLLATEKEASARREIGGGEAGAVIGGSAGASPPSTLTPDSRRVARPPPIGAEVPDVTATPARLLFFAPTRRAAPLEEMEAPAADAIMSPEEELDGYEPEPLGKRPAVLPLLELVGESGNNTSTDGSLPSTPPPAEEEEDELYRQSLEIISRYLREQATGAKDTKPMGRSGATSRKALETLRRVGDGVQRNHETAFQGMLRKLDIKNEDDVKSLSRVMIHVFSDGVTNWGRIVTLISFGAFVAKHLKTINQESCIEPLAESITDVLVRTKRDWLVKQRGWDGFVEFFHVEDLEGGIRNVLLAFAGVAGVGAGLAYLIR
# [6] = target: T1, Probable nicotinate-nucleotide adenylyltransferase (Staphylococcus aureus (strain N315), UniProt P65502); assay type: functional, Staphylococcus aureus subsp. aureus N315; details: read-out: IC50_Mean;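 on IC50 Mean: confirmatory dose-response retesting of NadD inhibitor hits first found in an ultra-high-throughput screen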
# T1 sequence (P65502 whole entry): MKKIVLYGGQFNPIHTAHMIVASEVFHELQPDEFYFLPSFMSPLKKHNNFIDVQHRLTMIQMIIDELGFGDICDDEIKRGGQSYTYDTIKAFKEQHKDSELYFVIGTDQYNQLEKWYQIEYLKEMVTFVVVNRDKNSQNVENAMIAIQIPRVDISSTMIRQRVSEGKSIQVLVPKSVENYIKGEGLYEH
# [7] = PAX5 activity inhibitors, dose response, selectivity assay for PAX8 inhibitor project, cell-based, plate reader, dry powder samples (AID 743047); assay type: functional;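 further: HEK293 cells carrying a Pax5 driven CD19 promoter luciferase reporter; potency of inhibitors that lower reporter luminescence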
# [8] = cytotoxicity dependent on PAX8, dose response, cell-based, plate reader, dry powder (AID 743049); assay type: functional
# [9] = tested on: Streptococcus sp. 'group A'; assay: growth inhibition of control SK(-) GAS strain, dose response, counter-screen for streptokinase expression inhibitor project, luminescence, kanamycin, BacTiterGlo, confirmation (AID 1900); assay type: functional, organism-based
# Paired box protein Pax-8 = Paired box protein Pax-8 (Homo sapiens, UniProt Q06710); assay: inhibitors of PAX8-driven TPO luciferase reporter, dose response, RMG-I cells, cherry-pick (AID 687027); assay type: functional, cell-based;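 further: luciferase reporter driven by Pax8 target thyroperoxidase promoter measured by SteadyGlo luminescence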
# Sequence of Paired box protein Pax-8 (Q06710 whole entry): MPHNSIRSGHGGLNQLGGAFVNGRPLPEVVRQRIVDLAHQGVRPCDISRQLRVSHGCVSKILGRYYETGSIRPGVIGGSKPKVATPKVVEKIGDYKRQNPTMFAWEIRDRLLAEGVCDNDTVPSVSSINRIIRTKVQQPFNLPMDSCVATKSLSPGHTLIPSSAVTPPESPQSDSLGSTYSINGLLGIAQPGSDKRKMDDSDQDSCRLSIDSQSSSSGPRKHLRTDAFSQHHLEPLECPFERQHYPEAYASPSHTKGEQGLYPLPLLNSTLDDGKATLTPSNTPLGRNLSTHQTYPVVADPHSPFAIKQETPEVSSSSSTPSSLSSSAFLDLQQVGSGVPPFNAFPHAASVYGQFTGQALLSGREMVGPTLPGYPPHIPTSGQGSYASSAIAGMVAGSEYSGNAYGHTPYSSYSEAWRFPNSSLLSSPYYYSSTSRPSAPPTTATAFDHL
# [10] = inhibitors of intracellular T. cruzi replication, confirmation, NIH3T3 host cells, beta-gal luminescence (AID 2044); assay type: functional, cell-based;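 further: intracellular parasites grown in NIH/3T3 mouse fibroblasts as host cells; luminescent beta-galactosidase reporter signal from transgenic T. cruzi replicating inside host cells; inhibitors lower the luminescence signal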
# [11] = cytotoxicity toward NIH3T3 fibroblasts, dose response, counter-screen, cell-based, ATP luminescence, mouse fibroblasts (AID 2010); assay type: functional;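 further: cells exposed to compound for about 90 hours before reading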
# [12] = HepG2 cell cytotoxicity, dose response, cytotoxicity control for Shn3 inhibitor project, CellTiter-Glo, cherry-picked (AID 624134); assay type: functional, cell-based
# [13] = NIH:OVCAR-3 ovarian cancer cell cytotoxicity, dose response, PAX8 inhibitor project, plate reader, dry powder samples (AID 743044); assay type: functional, cell-based
# [14] = cytotoxicity in COV434 cells, dose response, cytotoxicity control for PAX8 inhibitor project, cell-based, plate reader, dry powder, SA7 (AID 743145); assay type: functional
# [15] = Shn3 3'UTR reporter inhibitors, dose response, cell-based, Clone20 osteoblasts, firefly luciferase, cherry-picked (AID 624132); assay type: functional;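 further: firefly luciferase luminescence from reporter carrying the Shn3 3'UTR in osteoblasts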
# [16] = PAX2 cell-based inhibition, dose response, selectivity assay for PAX8 inhibitor project, plate reader, dry powder samples (AID 743048); assay type: functional;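 further: HEK293 cells carrying a WT1 promoter luciferase reporter driven by expressed Pax2; potency is for inhibition of Pax2 driven reporter signal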
# [17] = target: T1, Probable nicotinate-nucleotide adenylyltransferase; assay type: functional, Staphylococcus aureus subsp. aureus N315
# [18] = A2780 ovarian cancer cell cytotoxicity, dose response, cytotoxicity control, plate reader, dry powder samples (AID 743046); assay type: functional, cell-based
# [19] = control 3'UTR Renilla luciferase suppression, dose response, counter-screen for Shn3 inhibitor project, cell-based, Clone20-Shn3RL, cherry-picked (AID 624133); assay type: functional
# [20] = IGROV1 ovarian cancer cell cytotoxicity, dose response, PAX8 inhibitor project, plate reader, dry powder samples (AID 743043); assay type: functional, cell-based; details: IGROV-1
# [21] = cytotoxicity in COV362 ovarian cancer cells, dose response, cytotoxicity control for PAX8 inhibitor project, cell-based, plate reader, dry powder, SA12 (AID 743144); assay type: functional
# cells [22] = assay type: functional, cell-based
# Streptococcus = assay: Group A Streptococcus viability loss, dose response, counter-screen for streptokinase expression inhibitor project, luminescence, BacTiterGlo (AID 1915); assay type: functional, organism-based;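 further: potency for reduction of bacterial viability or growth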
# [23] = cytotoxicity in OVCAR4 cells, dose response, cytotoxicity control for PAX8 inhibitor project, cell-based, plate reader, dry powder, SA11 (AID 743150); assay type: functional; details: OVCAR-4
# cells [24] = assay type: functional, cell-based; remark: listed apart in the source
# [25] = target: T2, Type-1 angiotensin II receptor (Homo sapiens, UniProt P30556); assay: AT1 receptor agonists, dose response, selectivity assay for APJ receptor agonist project, cell-based, uHTS hits (AID 488865); assay type: functional;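 further: beta-arrestin recruitment to AT1 measured by enzyme fragment complementation luminescence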
# T2 sequence (P30556 whole entry): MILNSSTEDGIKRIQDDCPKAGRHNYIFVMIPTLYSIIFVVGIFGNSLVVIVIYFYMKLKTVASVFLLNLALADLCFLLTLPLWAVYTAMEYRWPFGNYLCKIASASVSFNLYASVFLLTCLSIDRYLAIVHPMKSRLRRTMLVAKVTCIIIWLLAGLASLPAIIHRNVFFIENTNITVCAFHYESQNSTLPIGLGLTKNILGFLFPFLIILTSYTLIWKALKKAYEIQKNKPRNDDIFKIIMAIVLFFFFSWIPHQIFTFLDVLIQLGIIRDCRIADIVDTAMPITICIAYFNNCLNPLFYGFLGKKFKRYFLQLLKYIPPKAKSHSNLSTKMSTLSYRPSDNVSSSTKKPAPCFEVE
# [26] = cytotoxicity in OV-90 ovarian cancer cells, dose response, PAX8 inhibitor project, cell-based, plate reader, dry powder, SA8 (AID 743149); assay type: functional
# [27] = target: Bifunctional protein GlmU (Mycobacterium tuberculosis, UniProt P9WMN3); assay: Inhibitors of Mycobacterial Glucosamine-1-phosphate acetyl transferase (GlmU). Secondary screen.; set-up: species or system Mycobacterium tuberculosis H37Rv
# Sequence of Bifunctional protein GlmU (P9WMN3 whole entry): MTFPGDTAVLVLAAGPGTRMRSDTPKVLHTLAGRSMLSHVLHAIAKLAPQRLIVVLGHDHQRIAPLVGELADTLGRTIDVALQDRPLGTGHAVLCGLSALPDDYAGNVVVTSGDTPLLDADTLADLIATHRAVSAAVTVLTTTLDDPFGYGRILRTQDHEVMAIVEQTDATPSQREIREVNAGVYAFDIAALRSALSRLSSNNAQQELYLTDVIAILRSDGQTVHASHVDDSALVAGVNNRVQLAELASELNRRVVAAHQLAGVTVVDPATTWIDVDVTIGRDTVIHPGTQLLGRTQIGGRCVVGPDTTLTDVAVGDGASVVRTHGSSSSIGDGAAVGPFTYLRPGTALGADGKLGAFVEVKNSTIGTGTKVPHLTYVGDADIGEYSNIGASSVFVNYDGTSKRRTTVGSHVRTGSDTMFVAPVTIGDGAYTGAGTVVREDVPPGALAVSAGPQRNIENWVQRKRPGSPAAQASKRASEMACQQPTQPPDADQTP
# Aminopeptidase N = target: T3, Aminopeptidase N (Plasmodium falciparum FcB1/Columbia, UniProt O96935); assay: P. falciparum M1AAP inhibitors, biochemical, fluorogenic H-Leu-NHMec substrate, 1536-well (AID 1445); set-up: species or system Plasmodium falciparum 3D7, 3D7
# T3 sequence (O96935 whole entry): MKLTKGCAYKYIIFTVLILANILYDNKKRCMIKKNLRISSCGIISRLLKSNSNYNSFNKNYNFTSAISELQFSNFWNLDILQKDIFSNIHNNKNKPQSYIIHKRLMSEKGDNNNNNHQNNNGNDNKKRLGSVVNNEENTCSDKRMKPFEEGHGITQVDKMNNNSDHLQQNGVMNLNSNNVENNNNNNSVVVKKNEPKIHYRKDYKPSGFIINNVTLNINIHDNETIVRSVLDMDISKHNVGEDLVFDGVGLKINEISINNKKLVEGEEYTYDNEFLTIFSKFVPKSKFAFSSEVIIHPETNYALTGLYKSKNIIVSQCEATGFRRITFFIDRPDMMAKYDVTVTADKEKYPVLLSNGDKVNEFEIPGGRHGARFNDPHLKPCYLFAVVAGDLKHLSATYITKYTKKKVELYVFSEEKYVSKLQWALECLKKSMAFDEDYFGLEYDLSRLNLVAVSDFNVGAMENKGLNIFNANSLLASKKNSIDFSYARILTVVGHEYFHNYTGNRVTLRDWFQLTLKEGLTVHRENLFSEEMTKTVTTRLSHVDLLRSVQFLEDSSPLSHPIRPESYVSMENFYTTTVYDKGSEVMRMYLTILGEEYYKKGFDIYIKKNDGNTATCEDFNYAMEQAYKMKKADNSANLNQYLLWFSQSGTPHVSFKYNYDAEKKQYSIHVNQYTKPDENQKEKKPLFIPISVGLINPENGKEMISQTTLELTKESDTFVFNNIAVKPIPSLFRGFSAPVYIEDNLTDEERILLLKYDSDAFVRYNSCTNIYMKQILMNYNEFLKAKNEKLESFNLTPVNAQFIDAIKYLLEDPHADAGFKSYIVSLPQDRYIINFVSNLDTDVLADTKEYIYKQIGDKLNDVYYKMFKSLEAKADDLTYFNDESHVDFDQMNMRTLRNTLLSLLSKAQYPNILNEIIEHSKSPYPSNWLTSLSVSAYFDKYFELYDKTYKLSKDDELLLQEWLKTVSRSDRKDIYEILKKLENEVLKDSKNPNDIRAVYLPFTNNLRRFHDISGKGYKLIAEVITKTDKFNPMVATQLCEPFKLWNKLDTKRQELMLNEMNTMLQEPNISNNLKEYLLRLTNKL
# Caspase-6 = Caspase-6 (Homo sapiens, UniProt P55212); assay: human caspase-6 inhibitors, dose response, biochemical, VEID-R110 fluorescence, cherry-pick (AID 720632)
# Sequence of Caspase-6 (P55212 24-179 limits assumed): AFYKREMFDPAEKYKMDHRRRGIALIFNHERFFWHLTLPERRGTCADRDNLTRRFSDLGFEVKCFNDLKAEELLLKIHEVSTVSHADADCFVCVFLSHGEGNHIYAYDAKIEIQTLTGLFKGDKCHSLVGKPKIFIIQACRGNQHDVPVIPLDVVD
# Sequence of Caspase-6 (P55212 194-293 limits assumed): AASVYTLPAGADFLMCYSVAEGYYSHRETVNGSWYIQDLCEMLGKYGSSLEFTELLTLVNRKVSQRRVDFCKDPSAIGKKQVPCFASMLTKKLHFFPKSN
# [28] = target: T4, Long-chain-fatty-acid--AMP ligase FadD28 (Mycobacterium tuberculosis, UniProt P9WQ59); assay: Fluorescence polarization aasay to screen for inhibitors that compete for the binding of FadD28 to a bisubstrate Measured in Biochemical System Using Plate Reader - 2147-01_Inhibitor_Dose_CherryPick_Activity.; assay type: functional, Mycobacterium tuberculosis H37Rv
# T4 sequence (P9WQ59 whole entry): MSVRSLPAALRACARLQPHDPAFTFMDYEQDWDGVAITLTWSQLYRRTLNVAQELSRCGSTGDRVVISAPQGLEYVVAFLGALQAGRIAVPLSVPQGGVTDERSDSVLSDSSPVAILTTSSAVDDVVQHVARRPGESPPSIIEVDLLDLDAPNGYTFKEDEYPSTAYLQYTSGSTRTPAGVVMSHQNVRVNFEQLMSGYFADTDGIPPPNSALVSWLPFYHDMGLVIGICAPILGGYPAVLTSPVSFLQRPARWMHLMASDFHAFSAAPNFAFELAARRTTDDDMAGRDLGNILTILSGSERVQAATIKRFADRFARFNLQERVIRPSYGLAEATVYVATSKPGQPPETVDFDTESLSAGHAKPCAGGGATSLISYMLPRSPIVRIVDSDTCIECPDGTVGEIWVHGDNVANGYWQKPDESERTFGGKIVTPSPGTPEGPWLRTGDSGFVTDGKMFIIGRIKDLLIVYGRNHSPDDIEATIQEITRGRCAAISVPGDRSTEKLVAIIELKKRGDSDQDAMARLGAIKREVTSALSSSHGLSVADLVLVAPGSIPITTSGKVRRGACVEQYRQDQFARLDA
# [29] = target: E3 ubiquitin-protein ligase XIAP (Homo sapiens, UniProt P98170); assay: Counter Screen using XIAP-Bir3 for Chemical Antagonists of Bir1/2 domains of IAP-family anti-apoptotic proteins. [Related pubchem assays (depositor defined):AID1018, AID1449, AID1514, AID1638, AID1749, AID1750, AID488957, AID488963]
# Sequence of E3 ubiquitin-protein ligase XIAP (P98170 whole entry): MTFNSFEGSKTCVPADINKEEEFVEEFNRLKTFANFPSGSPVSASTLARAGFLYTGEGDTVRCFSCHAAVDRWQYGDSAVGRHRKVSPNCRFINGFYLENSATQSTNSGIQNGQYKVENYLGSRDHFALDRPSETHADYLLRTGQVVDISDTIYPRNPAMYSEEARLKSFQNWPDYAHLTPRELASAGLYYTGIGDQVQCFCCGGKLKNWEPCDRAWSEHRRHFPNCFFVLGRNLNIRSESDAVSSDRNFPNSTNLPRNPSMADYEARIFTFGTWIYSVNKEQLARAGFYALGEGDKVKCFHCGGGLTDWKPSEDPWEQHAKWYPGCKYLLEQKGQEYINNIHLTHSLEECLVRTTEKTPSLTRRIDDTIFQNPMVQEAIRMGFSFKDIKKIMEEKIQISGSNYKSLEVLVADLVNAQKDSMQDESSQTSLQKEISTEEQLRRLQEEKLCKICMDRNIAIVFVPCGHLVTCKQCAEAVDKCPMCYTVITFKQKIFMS
# Genome polyprotein = Genome polyprotein (dengue virus type 2, UniProt P29990); assay: Dengue-2 NS5 methyltransferase inhibitors, primary screen, biochemical, confirmation dose response (AID 588689); assay type: functional
# Sequence of Genome polyprotein (P29990 2492-3391 limits assumed): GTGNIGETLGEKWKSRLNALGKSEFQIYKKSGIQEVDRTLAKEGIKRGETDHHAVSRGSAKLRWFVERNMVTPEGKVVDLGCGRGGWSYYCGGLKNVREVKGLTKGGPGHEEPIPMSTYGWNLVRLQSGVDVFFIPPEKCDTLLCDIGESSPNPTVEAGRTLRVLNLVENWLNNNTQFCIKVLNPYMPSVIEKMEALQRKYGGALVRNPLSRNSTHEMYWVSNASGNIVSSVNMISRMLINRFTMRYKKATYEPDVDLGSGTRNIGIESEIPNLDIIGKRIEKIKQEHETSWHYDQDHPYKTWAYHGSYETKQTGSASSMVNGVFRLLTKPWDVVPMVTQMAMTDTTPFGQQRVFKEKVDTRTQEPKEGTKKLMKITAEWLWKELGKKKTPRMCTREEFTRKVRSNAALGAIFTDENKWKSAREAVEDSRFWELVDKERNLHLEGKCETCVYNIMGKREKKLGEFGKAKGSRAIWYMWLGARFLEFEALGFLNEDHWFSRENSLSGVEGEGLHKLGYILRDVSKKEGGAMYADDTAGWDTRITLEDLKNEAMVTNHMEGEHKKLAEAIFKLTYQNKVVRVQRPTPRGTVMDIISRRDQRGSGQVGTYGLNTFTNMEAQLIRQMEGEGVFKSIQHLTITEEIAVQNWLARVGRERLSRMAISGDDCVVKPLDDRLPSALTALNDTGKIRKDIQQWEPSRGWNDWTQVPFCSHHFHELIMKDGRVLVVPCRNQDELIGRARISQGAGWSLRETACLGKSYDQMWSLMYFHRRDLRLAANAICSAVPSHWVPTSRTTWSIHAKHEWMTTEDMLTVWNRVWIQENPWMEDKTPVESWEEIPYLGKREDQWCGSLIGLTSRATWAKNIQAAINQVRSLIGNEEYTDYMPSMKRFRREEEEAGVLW
smiles,measurement,setting,value
[O-][Cl+3]([O-])([O-])[O-].c1ccc(-c2cc(-c3ccccc3)[n+](-c3ccccc3)c(-c3ccccc3)c2)cc1,AC50,INS1,2.59 µM (active)
same,IC50,[1],1.77 µM (active)
same,IC50,[2],14.3 µM (inactive)
same,IC50,[3],1.06 µM (active)
COc1ccc(C(=O)Nc2ccc(N3CCCC3)cc2)cc1,IC50,[4],16.2 µM (active)
same,IC50,Bcl-2-like protein 10,41.9 µM (active)
same,IC50,[5],3.44 µM (active)
Cc1cc(C)c2sc(NNC(=O)c3ccc(S(=O)(=O)N4CCc5ccccc5C4)cc3)nc2c1,IC50,[6],42.2 µM (active)
same,AC50,INS1,1.36 µM (active)
same,AC50,[7],4.85 µM (active)
same,AC50,[8],10.3 µM (active)
same,EC50,[9],1.29 µM (active)
same,AC50,Paired box protein Pax-8,2.27 µM (active)
same,EC50,[10],1.22 µM (active)
same,EC50,[11],1.82 µM (active)
same,AC50,[12],33.1 µM (active)
same,AC50,[13],6.31 µM (active)
same,AC50,[14],12.4 µM (active)
same,AC50,[15],1.8 µM (active)
same,AC50,[16],3.1 µM (active)
same,IC50,[17],7.44 µM (active)
same,AC50,[18],6.67 µM (active)
same,AC50,[19],1.35 µM (active)
same,AC50,[20],8.92 µM (active)
same,AC50,[21],19.2 µM (active)
same,EC50,cells [22],> 350 µM (not active)
same,EC50,Streptococcus,3.44 µM (active)
same,AC50,[23],43.4 µM (active)
same,EC50,cells [24],41.8 µM (active)
same,EC50,[25],> 100 µM (inactive)
same,AC50,[26],20.8 µM (active)
O=C(Nc1cccc(Oc2ccc(C(=O)O)c(C(=O)O)c2)c1)c1ccc(-c2ccccc2)cc1,IC50,[27],147 µM (active)
same,IC50,Aminopeptidase N,44.7 µM (active)
same,AC50,Caspase-6,15.7 µM (active)
same,AC50,[28],82.4 µM (active)
same,IC50,[29],> 20 µM (inactive)
same,IC50,[5],4.44 µM (active)
same,IC50,Genome polyprotein,20.5 µM (active)
